According to the supplement of paper PMC5908809:

Tests used:
[1] = test system: normal NK cells expanded with K562-aAPC; test: percent inhibition of viability; higher = more inhibition; conditions: 72 h, IL-2 2.5 ng/mL
Method: (§1)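 Drug sensitivity and resistance testing on K562-aAPC-expanded normal NK cells: 5 concentrations (10-fold steps over a 10,000-fold range), 72 h at 37 °C, viability by CellTiter-Glo normalised to DMSO and benzethonium chloride controls; DSS from the fitted curve.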

DERL-7 (IL-2 2.5 ng/mL) [2] = test: as above; conditions: 72 h
IMC-1 (IL-2 20 ng/mL) [3] = test: as above; conditions: 72 h
KAI3 (IL-2 2.5 ng/mL) [4] = test: as above; conditions: 72 h
KHYG-1 (IL-2 2.5 ng/mL) [5] = test: as above; conditions: 72 h
NK-92 (IL-2 2.5 ng/mL) [6] = test: as above; conditions: 72 h
NK-YS (IL-2 2.5 ng/mL) [7] = test: as above; conditions: 72 h
NKL (IL-2 2.5 ng/mL) [8] = test: as above; conditions: 72 h
SNK-6 (IL-2 2.5 ng/mL) [9] = test: as above; conditions: 72 h
YT (IL-2 2.5 ng/mL) [10] = test: as above; conditions: 72 h
[11] = test system: normal primary NK cells, pool 1 (3 donors) (IL-2 2.5 ng/mL); test: as above; conditions: 72 h
[12] = test system: normal primary NK cells, pool 1 (3 donors), resting (IL-2 0 ng/mL); test: as above; conditions: 72 h
[13] = test system: normal primary NK cells, pool 2 (3 donors) (IL-2 2.5 ng/mL); test: as above; conditions: 72 h
[14] = test system: normal primary NK cells, pool 3 (3 donors) (IL-2 2.5 ng/mL); test: as above; conditions: 72 h
[15] = test system: normal NK cells expanded with K562-aAPC; test: drug sensitivity score (DSS) (DSS units); higher = more sensitive; extreme values may be limits of the assay; conditions: 72 h; IL-2 2.5 ng/mL
Method: as §1

DERL-7 (IL-2 2.5 ng/mL) [16] = test: as above; conditions: 72 h
IMC-1 (IL-2 20 ng/mL) [17] = test: as above; conditions: 72 h
KAI3 (IL-2 2.5 ng/mL) [18] = test: as above; conditions: 72 h
KHYG-1 (IL-2 2.5 ng/mL) [19] = test: as above; conditions: 72 h
NK-92 (IL-2 2.5 ng/mL) [20] = test: as above; conditions: 72 h
NK-YS (IL-2 2.5 ng/mL) [21] = test: as above; conditions: 72 h
NKL (IL-2 2.5 ng/mL) [22] = test: as above; conditions: 72 h
SNK-6 (IL-2 2.5 ng/mL) [23] = test: as above; conditions: 72 h
YT (IL-2 2.5 ng/mL) [24] = test: as above; conditions: 72 h
[25] = test system: normal primary NK cells, pool 1 (3 donors) (IL-2 2.5 ng/mL); test: as above; conditions: 72 h
[26] = test system: normal primary NK cells, pool 1 (3 donors), resting (IL-2 0 ng/mL); test: as above; conditions: 72 h
[27] = test system: normal primary NK cells, pool 2 (3 donors) (IL-2 2.5 ng/mL); test: as above; conditions: 72 h
[28] = test system: normal primary NK cells, pool 3 (3 donors) (IL-2 2.5 ng/mL); test: as above; conditions: 72 h

C[C@@H]1C[C@H]2O[C@@H]2/C=C\C=C\C(=O)Cc2c(Cl)c(O)cc(O)c2C(=O)O1 [Radicicol] (max concentration tested 10000 nM)
percent inhibition of viability [%]
Conditions | 1 nM | 10 nM | 100 nM | 1000 nM | 10000 nM
DERL-7 (IL-2 2.5 ng/mL) [2] | -0.88 | 14.3 | 79.4 | 100 | 101
IMC-1 (IL-2 20 ng/mL) [3] | -2.78 | 3.67 | 0.43 | 101 | 101
KAI3 (IL-2 2.5 ng/mL) [4] | 1.19 | 9.86 | 58.6 | 99.8 | 94.4
KHYG-1 (IL-2 2.5 ng/mL) [5] | 0.9 | 2.76 | 13.1 | 101 | 110
NK-92 (IL-2 2.5 ng/mL) [6] | -1.96 | -4.16 | 34.1 | 99.2 | 104
NK-YS (IL-2 2.5 ng/mL) [7] | 3.72 | 7.15 | 24.6 | 93.4 | 99.7
NKL (IL-2 2.5 ng/mL) [8] | -1.4 | 4.63 | 30.1 | 85.8 | 81.6
SNK-6 (IL-2 2.5 ng/mL) [9] | 8 | 13.2 | 49.9 | 96.8 | 78.6
YT (IL-2 2.5 ng/mL) [10] | -1.95 | 7.65 | 16.1 | 64.4 | 91.6
[1] | -4.44 | 1.88 | 51 | 98.6 | 80.6
[11] | 5.96 | -3.33 | 44.2 | 80.8 | 94.1
[12] | 9.89 | -3.46 | 22.4 | 41.1 | 75.4
[13] | -13.3 | -1.53 | 60.7 | 82 | 91.3
[14] | -8.94 | -10.4 | 38 | 82.1 | 91.5

Conditions | drug sensitivity score
DERL-7 (IL-2 2.5 ng/mL) [16] | 28.9
IMC-1 (IL-2 20 ng/mL) [17] | 18.1
KAI3 (IL-2 2.5 ng/mL) [18] | 25.1
KHYG-1 (IL-2 2.5 ng/mL) [19] | 20.2
NK-92 (IL-2 2.5 ng/mL) [20] | 22.8
NK-YS (IL-2 2.5 ng/mL) [21] | 20
NKL (IL-2 2.5 ng/mL) [22] | 19.4
SNK-6 (IL-2 2.5 ng/mL) [23] | 23.3
YT (IL-2 2.5 ng/mL) [24] | 14.2
[15] | 23.9
[25] | 20.8
[26] | 10.6
[27] | 23.6
[28] | 20.5

COc1cc(Nc2ncc3c(n2)-c2ccc(Cl)cc2C(c2c(F)cccc2OC)=NC3)ccc1C(=O)O [Alisertib] (max concentration tested 10000 nM)
percent inhibition of viability [%]
Conditions | 1 nM | 10 nM | 100 nM | 1000 nM | 10000 nM
DERL-7 (IL-2 2.5 ng/mL) [2] | 3.14 | 3.32 | 73.9 | 65.1 | 72.8
IMC-1 (IL-2 20 ng/mL) [3] | -9.95 | 3 | 42.5 | 76.7 | 88
KAI3 (IL-2 2.5 ng/mL) [4] | -7.42 | 6.5 | 38.4 | 56.8 | 73
KHYG-1 (IL-2 2.5 ng/mL) [5] | -6.82 | 13.3 | 62.3 | 82.9 | 90.3
NK-92 (IL-2 2.5 ng/mL) [6] | -1.61 | 21.5 | 53.4 | 63.6 | 77.1
NK-YS (IL-2 2.5 ng/mL) [7] | -8.82 | 18.6 | 67.4 | 75.4 | 71.3
NKL (IL-2 2.5 ng/mL) [8] | -15.7 | -12.7 | 54.1 | 31.1 | 62.9
SNK-6 (IL-2 2.5 ng/mL) [9] | -9.82 | 4.71 | 73.7 | 81.3 | 84.4
YT (IL-2 2.5 ng/mL) [10] | -1.37 | 10.7 | 43.4 | 32.9 | 60.8
[1] | -8.29 | -10.5 | 39 | 46 | 63.8
[11] | -6.59 | 4.27 | 6.91 | 0.99 | 12.4
[12] | 4.36 | 18.6 | 7.69 | 21.1 | 47.6
[13] | -1.45 | -4.51 | 12.5 | 7.67 | 29.6
[14] | 4.24 | -4.25 | 17.1 | 4.71 | 23

Conditions | drug sensitivity score
DERL-7 (IL-2 2.5 ng/mL) [16] | 23.4
IMC-1 (IL-2 20 ng/mL) [17] | 19.8
KAI3 (IL-2 2.5 ng/mL) [18] | 16
KHYG-1 (IL-2 2.5 ng/mL) [19] | 24.4
NK-92 (IL-2 2.5 ng/mL) [20] | 21.1
NK-YS (IL-2 2.5 ng/mL) [21] | 24.5
NKL (IL-2 2.5 ng/mL) [22] | 17.9
SNK-6 (IL-2 2.5 ng/mL) [23] | 24.9
YT (IL-2 2.5 ng/mL) [24] | 13.6
[15] | 16.4
[25] | 0
[26] | 5.81
[27] | 1.95
[28] | 1.41
